This is an account of results in US9108944B2, “Androgen receptor modulators and uses thereof” (ARAGON PHARMACEUTICALS, INC., priority 2010, dated 2015).

pIC50: −log10 of the molar value. Where only a bound is given, the exact number is not on record here.

The target in the assay is T1, AR-VP16 (Homo sapiens, UniProt P10275).
T1 sequence (P10275 560-920 limits assumed): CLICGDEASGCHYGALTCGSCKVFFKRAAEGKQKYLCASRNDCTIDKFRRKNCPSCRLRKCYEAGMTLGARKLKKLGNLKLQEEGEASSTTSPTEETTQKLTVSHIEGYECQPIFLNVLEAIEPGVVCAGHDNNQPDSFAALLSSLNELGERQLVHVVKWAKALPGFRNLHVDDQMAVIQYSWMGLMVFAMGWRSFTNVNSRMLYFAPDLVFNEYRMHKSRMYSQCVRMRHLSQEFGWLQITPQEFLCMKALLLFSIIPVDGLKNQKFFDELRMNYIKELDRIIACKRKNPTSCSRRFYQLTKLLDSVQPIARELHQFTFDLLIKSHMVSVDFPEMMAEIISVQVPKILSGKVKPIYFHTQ
Kind of assay: AR-VP16 DNA Binding Assay, antagonist mode (HepG2 cells, 0.1 nM R1881). It is filed as cell-based. How it is done:
Cells were transiently transfected using Lipofectin (Life Technologies) according to the manufacturer's protocol. […] Transfected cells were incubated overnight then treated with ligand. […] For antagonist assays, the compounds were serially diluted and 50 μL of compound with RPMI supplemented with charcoal stripped serum plus methyltrienolone (R1881) were added to the cells. The final R1881 concentration used in the antagonist assays was 0.1 nM. Following 48 hour incubation the medium was removed and the cells were lysed in 40 μL of lysis buffer (25 mM Tris Phosphate, 2 mM CDTA, 10% Glycerol, 0.5% Triton X-100, 2 mM DTT).

The term pIC50 denotes the negative decadic logarithm of the IC50, by convention in mol/L. As to `CS(=O)(=O)c1ccc(N2C(=S)N(c3cnc(C#N)c(C(F)(F)F)c3)C(=O)C23CCC3)cc1` [Compound 80, 5-(5-(4-(Methylsulfonyl)phenyl)-8-oxo-6-thioxo-5,7-diazaspiro[3.4]octan-7-yl)-3-(trifluoromethyl)picolinonitrile], the pIC50 was above 6.00. Consider `Cc1ccc(N2C(=S)N(c3ccc(C#N)n4nccc34)C(=O)C23CCC3)cc1` [Compound 82, 4-(8-Oxo-6-thioxo-5-(p-tolyl)-5,7-diazaspiro[3.4]octan-7-yl)pyrazolo[1,5-a]pyridine-7-carbonitrile], for which the pIC50 was above 6.00.

`N#Cc1ncc(N2C(=O)C3(CCC3)N(c3ccc4[nH]ncc4c3)C2=S)cc1C(F)(F)F` [Compound 87, 5-(5-(1H-Indazol-5-yl)-8-oxo-6-thioxo-5,7-diazaspiro[3.4]octan-7-yl)-3-(trifluoromethyl)picolinonitrile]: the pIC50 is above 6.00.

`CN(Cc1ccncc1)Cc1ccc(N2C(=S)N(c3cnc(C#N)c(C(F)(F)F)c3)C(=O)C23CCC3)cc1` [Compound 92, 5-(5-(4-((Methyl(pyridin-4-ylmethyl)amino)methyl)phenyl)-8-oxo-6-thioxo-5,7-diazaspiro[3.4]octan-7-yl)-3-(trifluoromethyl)picolinonitrile] gave a pIC50 above 6.00. With `Cc1ccc(N2C(=S)N(c3ccc(C#N)c4ccccc34)C(=O)C23CCC3)cc1` [Compound 94, 4-(8-Oxo-6-thioxo-5-(p-tolyl)-5,7-diazaspiro[3.4]octan-7-yl)-1-naphthonitrile] the figure was above 6.00; with `CNC(=O)c1ccc(N2C(=S)N(c3ccc(C#N)c4ccccc34)C(=O)C23CCC3)cc1F` [Compound 95, 4-(7-(4-Cyanonaphthalen-1-yl)-8-oxo-6-thioxo-5,7-diazaspiro[3.4]octan-5-yl)-2-fluoro-N-methylbenzamide], above 6.00. With `Cc1cncc(-c2ccc(N3C(=S)N(c4cnc(C#N)c(C)c4)C(=O)C34CCC4)cc2)c1` [Compound 98, 3-Methyl-5-(5-(4-(5-methylpyridin-3-yl)phenyl)-8-oxo-6-thioxo-5,7-diazaspiro[3.4]octan-7-yl)picolinonitrile] the figure was above 6.00; with `CC1(C)C(=O)N(c2cnc(C#N)c(C(F)(F)F)c2)C(=S)N1c1ccc(O)cc1` [Compound 100, 5-(3-(4-Hydroxyphenyl)-4,4-dimethyl-5-oxo-2-thioxoimidazolidin-1-yl)-3-(trifluoromethyl)picolinonitrile], above 6.00; with `Cc1cc(N2C(=O)C3(CCC3)N(c3ccc(N(C)C4CCN(C)CC4)cc3)C2=S)cnc1C#N` [Compound 102, 3-Methyl-5-(5-(4-(methyl(1-methylpiperidin-4-yl)amino)phenyl)-8-oxo-6-thioxo-5,7-diazaspiro[3.4]octan-7-yl)picolinonitrile], below 6.00. The same measure for `Cc1cc(N2C(=O)C3(CCC3)N(c3ccc(-c4cncnc4)cc3)C2=S)cnc1C#N` [Compound 103, 3-Methyl-5-(8-oxo-5-(4-(pyrimidin-5-yl)phenyl)-6-thioxo-5,7-diazaspiro[3.4]octan-7-yl)picolinonitrile]: above 6.00; for `CNC(=O)c1ccc(N2C(=S)N(c3cnc(C#N)c(C)c3)C(=O)C23CCC3)cc1Cl` [Compound 108, 2-Chloro-4-(7-(6-cyano-5-methylpyridin-3-yl)-8-oxo-6-thioxo-5,7-diazaspiro[3.4]octan-5-yl)-N-methylbenzamide]: above 6.00; for `CNC(=O)c1ccc(N2C(=S)N(c3cnc(C#N)c(C)c3)C(=O)C23CCC3)cc1C(F)(F)F` [Compound 109, 4-(7-(6-Cyano-5-methylpyridin-3-yl)-8-oxo-6-thioxo-5,7-diazaspiro[3.4]octan-5-yl)-N-methyl-2-(trifluoromethyl)benzamide]: above 6.00. `N#Cc1ncc(N2C(=O)C3(CCC3)N(c3cccc4ccccc34)C2=S)cc1C(F)(F)F` [Compound 110, 5-(5-(Naphthalen-1-yl)-8-oxo-6-thioxo-5,7-diazaspiro[3.4]octan-7-yl)-3-(trifluoromethyl)picolinonitrile] gave a pIC50 above 6.00.
